# Literature values as cited in PMC6277198, “Molecular basis for activation of lecithin:cholesterol acyltransferase by a compound that increases HDL cholesterol” (eLife, 2018).
# Experiments:
# mice and hamsters = test system: mice and hamsters; parameters: method as in Chen et al., 2012; Freeman et al., 2017; Kayser et al., 2013; conditions: ref Chen et al., 2012, Freeman et al., 2017, Kayser et al., 2013; cited from earlier work
# LCAT = test system: LCAT; parameters: method as in Kobayashi et al., 2015a; Kobayashi et al., 2015b; conditions: removal of the C4 hydroxyl group, ref Kobayashi et al., 2015a, 2015b; cited from earlier work
# [1] = parameters: method as in Shamburek et al., 2016b; conditions: ref Shamburek et al., 2016b; cited from earlier work
compound,measurement,setting,value
"CCSc1nnc(Sc2nccnc2C#N)s1 [Compound A, 3-(5-(ethylthio)−1,3,4-thiadiazol-2-ylthio)pyrazine-2-carbonitrile]",plasma CE and HDL-C levels,mice and hamsters,increases
"O=C1CC(C(F)(F)F)c2c(C3CCN(c4cnc(C(F)(F)F)cn4)CC3)n[nH]c2N1 (stereo not drawn) [compound 4, 4-(trifluoromethyl)−3-(1-(5-(trifluoromethyl)pyrazin-2-yl)piperidin-4-yl)−1,4,5,7-tetrahydro-6H-pyrazolo[3,4-b]pyridin-6-one]",drop in potency compared with 2,LCAT,~ 6 fold
"rhLCAT: Recombinant human LCAT, tested in phase I and as enzyme replacement therapy",safety in a phase I study,[1],safe
